Test results published in US20260276660A1, “DETERMINATION OF PROGESTOGENS NON-INVASIVELY IN ANIMALS” (Vetcare Oy, priority 2023, published 2026).

These molecules were tested on Monoclonal mouse 5α-PtG antibody (assay: Cross-reactivity of monoclonal 5α-PtG antibody (enzyme immunoassay)). Conditions: monoclonal mouse 5α-PtG antibody raised against 5α-PtG-KLH.
Type: binding
Experimental: Monoclonal mouse 5α-PtG antibody was raised against the 5α-PtG-KLH by Thermo Fisher Scientific (Rockford, TL, USA). The antibodies were screened against the 5α-PtG-BSA. Cross-reactivities for the antibody were: 100% 5α-pregnane-3β,6α,20β-triol glucuronide, 25.4% 5α-pregnane-3β,6α,20β-triol, 0.5% 5β-pregnane-3α,20β-diol and 0.5% 5α-pregnane-3β,6α-diol-20-one.
The 96 well polystyrene, certified MaxiSorp® plates were coated with antigen (5α-PtG-cBSA) by adding 100 μl of 0.25 μg/ml antigen in coating buffer (0.01 M sodium bicarbonate, pH 9.5) in each well. The plates were covered with plastic sticker to prevent evaporation, protected from light and incubated at room temperature over night or several nights at +4° C. The wells were emptied and washed once with 250 μl general washing buffer (e.g. PBS with 0.05% Tween 20 (PBST)), filled with 200 μl blocking buffer (5% sucrose and 0.5% BSA in PBST (w/V)), covered and incubated at +37° C. for a half an hour. The plates were poured empty and dried for three hours at +37° C. Dried plates were covered with plastic sticker, packed in re-sealable plastic bags with silica beads and stored at +4° C. until use.
The hormone assays were performed from the individual samples collected in different oestrus cycle phases and from the urine sample series from 60 bitches. The 5α-PtG-cBSA coated plates were washed once with 250 μl of PBST. The urine samples were diluted 1:20 in assay buffer (0.2% BSA (w/V) in PBS with 0.01% Triton-X) and added in sample wells (50 μl). A dilution series of standard was prepared by diluting the 5α-PtG in assay buffer and added to standard wells (50 μl; 1200-1.6 nM). Assay buffer without additives was added to two wells to determine the maximum binding capacity (B0) and 1900 nM 5α-PtG control was diluted 1:20 in assay buffer and used as a recovery control in all assays. All samples and standards were measured as two replicates. The stock dilution of monoclonal mouse 5α-PtG antibody (1:100) was further diluted 1:100 in assay buffer and added 50 μl in each well. The plate was covered and incubated at +37° C. for half an hour, followed by washing the plate three times. Horseradish peroxidase labeled secondary antibody (goat anti-mouse IgG HRP) was diluted in 1:20 000 in 0.5% BSA (w/V) in PBST, added 100 μl per well and incubated half an hour at +37° C. After washing the plate three times with PBST, TMB in DMSO solution (0.5% 3,3′,5,5′-tetramethylbenzidine in dimethylsulfoxide (w/V; TCIAT1023 Tokyo Chemical Industry)) was diluted 1:50 in substrate buffer (0.1 M sodium acetate trihydrate, 1.5 mM citric acid monohydrate, 0.005% hydrogen peroxide (30%)), added in each well (100 μl) and incubated at room temperature 30 minutes. The reaction was stopped by adding 50 μl 1 M sulfuric acid to each well. The absorbance was measured at 450 nm by microplate reader (Hidex Sense).

| SMILES | Cross-reactivities for the antibody |
| --- | --- |
| C[C@H](O)[C@H]1CC[C@H]2[C@@H]3CC[C@@H]4C[C@H](O)CC[C@]4(C)[C@H]3CC[C@]12C [5β-pregnane-3α,20α-diol] | No cross-reactivities |
| C[C@@H](O)[C@H]1CC[C@H]2[C@@H]3C[C@H](O[C@@H]4O[C@H](C(=O)O)[C@@H](O)[C@H](O)[C@H]4O)[C@H]4C[C@@H](O)CC[C@]4(C)[C@H]3CC[C@]12C [5α-PtG, 5α-pregnane-3β,6α,20β-triol-6-O-β-D-glucuronide] | 100% |
| CC(=O)[C@H]1CC[C@H]2[C@@H]3CCC4=CC(=O)CC[C@]4(C)[C@H]3CC[C@]12C [progesterone, pregn-4-ene-3,20-dione] | No cross-reactivities |
| C[C@H](O)[C@@]1(O)CC[C@H]2[C@@H]3CC[C@@H]4C[C@H](O)CC[C@]4(C)[C@H]3CC[C@@]21C [5β-pregnane-3α,17α,20α-triol] | No cross-reactivities |
| CC(O)C1(O)CCC2C3CCC4CC(O)CCC4(C)C3CCC21C (stereo not drawn) [5β-pregnane-3α,17α,20β-triol] | No cross-reactivities |
| C[C@@H](O)[C@@]1(O)CCC2C3CC[C@H]4C[C@@H](O)CC[C@]4(C)C3CC[C@@]21C (stereo partly drawn) [5α-pregnane-3β,17α,20β-triol] | No cross-reactivities |
| C[C@H](O)[C@H]1CC[C@H]2[C@@H]3C[C@H](O)[C@H]4C[C@@H](O)CC[C@]4(C)[C@H]3CC[C@]12C [5α-pregnane-3β,6α,20α-triol] | No cross-reactivities |
| C[C@@H](O)[C@H]1CC[C@H]2[C@@H]3CC[C@@H]4C[C@H](O)CC[C@]4(C)[C@H]3CC[C@]12C [5β-pregnane-3α,20β-diol] | 0.5% |
| CC(=O)[C@H]1CC[C@H]2[C@@H]3C[C@H](O)[C@H]4C[C@@H](O)CC[C@]4(C)[C@H]3CC[C@]12C [5α-pregnane-3β,6α-diol-20-one] | 0.5% |
| C[C@H](O)[C@H]1CC[C@H]2[C@@H]3CC[C@@H]4C[C@H](O[C@@H]5O[C@H](C(=O)O)[C@@H](O)[C@H](O)[C@H]5O)CC[C@]4(C)[C@H]3CC[C@]12C [PdG, 5β-pregnane-3α,20α-diol-3-glucuronide] | No cross-reactivities |
| C[C@@H](O)[C@H]1CC[C@H]2[C@@H]3C[C@H](O)[C@H]4C[C@@H](O)CC[C@]4(C)[C@H]3CC[C@]12C [5α-pregnane-3β,6α,20β-triol] | 25.4% |

The molecules below were run on hepatic S9 enzymes (assay: In vitro metabolism of progesterone by hepatic S9). Conditions: after one hour with ovarian S9, hepatic S9 added.
Type: in vitro ADME, dog

| SMILES | change of 17α-OHP when hepatic S9 were added |
| --- | --- |
| CC(=O)[C@@]1(O)CC[C@H]2[C@@H]3CCC4=CC(=O)CC[C@]4(C)[C@H]3CC[C@@]21C [17α-OHP, 17α-hydroxyprogesterone] | decreased significantly |

Same assay, conditions: dog, 50 µg/mL

| SMILES | hydroxyprogesterones produced from progesterone |
| --- | --- |
| CC(=O)[C@H]1CC[C@H]2[C@@H]3CCC4=CC(=O)CC[C@]4(C)[C@H]3CC[C@]12C [progesterone, pregn-4-ene-3,20-dione] | higher amounts of 6α-, 6β- and 16α-hydroxyprogesterones were detected |
